Where two headings read alike, the source gives them in different places. Where only a bound is given, the exact number is not on record here.

The nature of this data set: Cytotoxicity assay (AlamarBlue) in mock infected MT-2 cells. It is filed as cell-based. The settings on record: human. The gist of the method:
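MT-2 cells at 2×10^4 cells/well, mock-infected, treated with 3-fold serial compound dilutions for 96 h at 37 °C. AlamarBlue added for 3 h, fluorescence read at 545/590 nm; % inhibition versus solvent control fitted to a 4-parameter logistic to give CC50.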

Where [1] appears, read: mock infected MT-2 cells, 96 hours, AlamarBlue, read-out: CC50.

Take `COc1ccc(/C=C/C2NCCc3cc(OCc4ccccc4)c(OC)cc32)cc1Cn1ccnc1C` (stereo not drawn) [EN, 6-(benzyloxy)-7-methoxy-1-[(E)-2-{4-methoxy-3-[(2-methyl-1H-imidazol-1-yl)methyl]phenyl}ethenyl]-1,2,3,4-tetrahydroisoquinoline]: the CC50 at 96 h was 4.03 µM. Still for that read-out and setting: in the case of `COc1ccc(/C=C/C2NCCc3cc(OCc4ccccc4)c(OC)cc32)cc1COCC(F)(F)F` (stereo not drawn) [EO, 6-(benzyloxy)-7-methoxy-1-[(E)-2-{4-methoxy-3-[(2,2,2-trifluoroethoxy)methyl]phenyl}ethenyl]-1,2,3,4-tetrahydroisoquinoline] it was 1.94 µM; in that of `COc1cc2c(cc1OCc1ccccc1)CCNC2/C=C/c1ccc(C(=O)O)cc1` (stereo not drawn) [EQ, 4-[(E)-2-[6-(benzyloxy)-7-methoxy-1,2,3,4-tetrahydroisoquinolin-1-yl]ethenyl]benzoic acid], 10 µM. Still for that read-out and setting: the same measure for `COc1cc2c(cc1OCc1ccccc1)CCNC2/C=C/c1cccc(C(=O)O)c1` (stereo not drawn) [ER, 3-[(E)-2-[6-(benzyloxy)-7-methoxy-1,2,3,4-tetrahydroisoquinolin-1-yl]ethenyl]benzoic acid]: 10 µM. Same read-out and setting: the same measure for `COc1cc2c(cc1OCc1ccccc1)CCNC2/C=C/c1ccccc1C(=O)O` (stereo not drawn) [ES, 2-[(E)-2-[6-(benzyloxy)-7-methoxy-1,2,3,4-tetrahydroisoquinolin-1-yl]ethenyl]benzoic acid]: 10 µM. Compound `CCOC(=O)c1ccccc1/C=C/C1NCCc2cc(OCc3ccccc3)c(OC)cc21` (stereo not drawn) [ET, ethyl 2-[(E)-2-[6-(benzyloxy)-7-methoxy-1,2,3,4-tetrahydroisoquinolin-1-yl]ethenyl]benzoate] returned a half-maximal cytotoxic concentration (CC50) at 96 h of 9.9 µM. `COc1ccc(CCC2NCCc3cc(OC)c(OC)cc32)cc1OC` (stereo not drawn) [Example A, 1-[2-(3,4-Dimethoxyphenyl)ethyl]-6,7-dimethoxy-1,2,3,4-tetrahydroisoquinoline] showed a CC50 at 96 h greater than 10 µM. Same read-out and setting: the same measure for `CCc1cc(OC)c(OCc2ccccc2)cc1/C=C/C1NCCc2cc(OCc3ccccc3)c(OC)cc21` (stereo not drawn) [Example AA, 6-benzyloxy-1-[(E)-2-(5-benzyloxy-2-ethyl-4-methoxy-phenyl)vinyl]-7-methoxy-1,2,3,4-tetrahydroisoquinoline]: 3.89 µM.

As to `COc1ccc(/C=C/C2NCCc3cc(OCc4ccccc4)c(OC)cc32)cc1OCc1ccccc1` (stereo not drawn) [Example AB, 6-benzyloxy-1-[(E)-2-(3-benzyloxy-4-methoxy-phenyl)vinyl]-7-methoxy-1,2,3,4-tetrahydroisoquinoline], the CC50 at 96 h under setting [1] was 3.96 µM. For `COc1cc(Cl)c(/C=C/C2NCCc3cc(OCc4ccccc4)c(OC)cc32)cc1OCc1ccccc1` (stereo not drawn) [Example AC, 6-benzyloxy-1-[(E)-2-(5-benzyloxy-2-chloro-4-methoxy-phenyl)vinyl]-7-methoxy-1,2,3,4-tetrahydroisoquinoline], the cytotoxic concentration (CC50) at 96 h is 1.9 µM. Same read-out and setting: the same measure for `COc1cc2c(cc1OCc1ccccc1)CCNC2/C=C/c1cc(OCc2ccccc2)ccc1C` (stereo not drawn) [Example AD, 6-benzyloxy-1-[(E)-2-(5-benzyloxy-2-methyl-phenyl)vinyl]-7-methoxy-1,2,3,4-tetrahydroisoquinoline]: 3.22 µM; for `COc1cc(C)c(/C=C/C2=NCCc3cc(OCc4ccccc4)c(OC)cc32)cc1OCc1ccccc1` [Example AE, 6-benzyloxy-1-[(E)-2-(5-benzyloxy-4-methoxy-2-methyl-phenyl)vinyl]-7-methoxy-3,4-dihydroisoquinoline]: 33.5 µM; for `COc1ccc(/C=C/C2NCCc3cc(OCc4ccccc4)c(OC)cc32)c(C)c1` (stereo not drawn) [Example AG, 6-benzyloxy-7-methoxy-1-[(E)-2-(4-methoxy-2-methyl-phenyl)vinyl]-1,2,3,4-tetrahydroisoquinoline]: 9.83 µM. For `COc1cc(C)c(/C=C/C2NCCc3cc(OCc4ccccc4)c(OC)cc32)cc1OC` (stereo not drawn) [Example AH, 6-benzyloxy-1-[(E)-2-(4,5-dimethoxy-2-methyl-phenyl)vinyl]-7-methoxy-1,2,3,4-tetrahydroisoquinoline], the CC50 at 96 h is 2.4 µM. The compound `COCCCCOc1cc(OC)ccc1/C=C/C1NCCc2cc(OCc3ccccc3)c(OC)cc21` (stereo not drawn) [Example AI, (E)-6-(benzyloxy)-7-methoxy-1-(4-methoxy-2-(4-methoxybutoxy)styryl)-1,2,3,4-tetrahydroisoquinoline] registered a CC50 at 96 h of 5.6 µM. Regarding `COc1cc2c(cc1OCc1ccccc1)CCNC2/C=C/c1ccc(OC(F)(F)F)cc1C` (stereo not drawn) [Example AJ, (E)-6-(benzyloxy)-7-methoxy-1-(2-methyl-4-(trifluoromethoxy)styryl)-1,2,3,4-tetrahydroisoquinoline], it took 5 µM to reach half-maximal cytotoxicity (CC50 at 96 h).

For the compound `COc1cc2c(cc1OCc1ccccc1)CCNC2/C=C/c1ccnn1C` (stereo not drawn) [Example AK, 6-benzyloxy-7-methoxy-1-[(E)-2-(2-methylpyrazol-3-yl)vinyl]-1,2,3,4-tetrahydroisoquinoline], the half-maximal cytotoxic concentration (CC50) at 96 h was 10 µM. Still for that read-out and setting: the same measure for `CCn1cc(/C=C/C2NCCc3cc(OCc4ccccc4)c(OC)cc32)cn1` (stereo not drawn) [Example AL, 6-Benzyloxy-1-[(E)-2-(1-ethylpyrazol-4-yl)vinyl]-7-methoxy-1,2,3,4-tetrahydroisoquinoline]: 24.2 µM; for `COc1cc2c(cc1OCc1ccccc1)CCNC2/C=C/c1cc(OC)c(OC)c(OC)c1` (stereo not drawn) [Example AM, 6-Benzyloxy-7-methoxy-1-[(E)-2-(3,4,5-trimethoxyphenyl)vinyl]-1,2,3,4-tetrahydroisoquinoline]: 6 µM; for `COc1cc2c(cc1OCc1ccccc1)CCNC2/C=C/c1ccc(OC)c2occc12` (stereo not drawn) [Example AN, 6-Benzyloxy-7-methoxy-1-[(E)-2-(7-methoxybenzofuran-4-yl)vinyl]-1,2,3,4-tetrahydroisoquinoline]: 3.7 µM. `COc1cc2c(cc1OCc1ccccc1)CCNC2/C=C/c1ccc(OC)c2ccoc12` (stereo not drawn) [Example AO, 6-Benzyloxy-7-methoxy-1-[(E)-2-(4-methoxybenzofuran-7-yl)vinyl]-1,2,3,4-tetrahydroisoquinoline] had a CC50 at 96 h of 9.94 µM. For the compound `COc1ccc(/C=C/C2c3cc(OC)c(OCc4ccccc4)cc3CCN2C(=O)c2cnccn2)cc1OCc1ccccc1` (stereo not drawn) [Example B, [6-Benzyloxy-1-[(E)-2-(3-benzyloxy-4-methoxy-phenyl)vinyl]-7-methoxy-3,4-dihydro-1H-isoquinolin-2-yl]-pyrazin-2-yl-methanone], the half-maximal cytotoxic concentration (CC50) at 96 h worked out at 5 µM. As to `COc1cc2c(cc1OC)C(/C=C/c1cc(OCc3ccccc3)c(OC)cc1C)NCC2` (stereo not drawn) [Example C, 1-[(E)-2-(5-Benzyloxy-4-methoxy-2-methyl-phenyl)vinyl]-6,7-dimethoxy-1,2,3,4-tetrahydroisoquinoline], the 50% cytotoxic concentration (CC50) at 96 h came out at 11 µM. `CCCCN1CCc2cc(OC)c(OCc3ccccc3)cc2C1/C=C/c1ccc(OCc2ccccc2)c(OC)c1` (stereo not drawn) [Example D, 7-Benzyloxy-1-[(E)-2-(4-benzyloxy-3-methoxy-phenyl)vinyl]-2-butyl-6-methoxy-3,4-dihydro-1H-isoquinoline] returned a CC50 at 96 h greater than 10 µM. On the same count and under the same terms, in the case of `COc1cc(C)c(/C=C/C2c3cc(OC)c(OCc4ccccc4)cc3CCN2C)cc1OCc1ccccc1` (stereo not drawn) [Example E, 6-Benzyloxy-1-[(E)-2-(5-benzyloxy-4-methoxy-2-methyl-phenyl)vinyl]-7-methoxy-2-methyl-3,4-dihydro-1H-isoquinoline] it was 7.17 µM; in that of `CCCCN1CCc2cc(OCc3ccccc3)c(OC)cc2C1/C=C/c1ccc(OC)c(OCc2ccccc2)c1` (stereo not drawn) [Example G, 6-Benzyloxy-1-[(E)-2-(3-benzyloxy-4-methoxy-phenyl)vinyl]-2-butyl-7-methoxy-3,4-dihydro-1H-isoquinoline], 5 µM; in that of `COc1cc(C(C)(C)C)c(/C=C/C2NCCc3cc(OCc4ccccc4)c(OC)cc32)cc1OCc1ccccc1` (stereo not drawn) [Example J, 6-Benzyloxy-1-[(E)-2-(5-benzyloxy-2-tert-butyl-4-methoxy-phenyl)vinyl]-7-methoxy-1,2,3,4-tetrahydroisoquinoline], 5.36 µM. Still for that read-out and setting: the same measure for `COC(=O)N1CCc2cc(OCc3ccccc3)c(OC)cc2C1/C=C/c1ccc(OC)c(OCc2ccccc2)c1` (stereo not drawn) [Example L, Methyl 6-benzyloxy-1-[(E)-2-(3-benzyloxy-4-methoxy-phenyl)vinyl]-7-methoxy-3,4-dihydro-1H-isoquinoline-2-carboxylate]: greater than 20 µM. `COc1cc(C)c(/C=C/C2c3cc(OC)c(OCc4ccccc4)cc3CCN2C(=O)NC(C)(C)C)cc1OCc1ccccc1` (stereo not drawn) [Example O, 6-benzyloxy-1-[(E)-2-(5-benzyloxy-4-methoxy-2-methyl-phenyl)vinyl]-N-tert-butyl-7-methoxy-3,4-dihydro-1H-isoquinoline-2-carboxamide]: the CC50 at 96 h is greater than 10 µM. On to `COc1cc(C)c(CCC2NCCc3cc(OCc4ccccc4)c(OC)cc32)cc1OCc1ccccc1` (stereo not drawn) [Example Q, 6-benzyloxy-1-[2-(5-benzyloxy-4-methoxy-2-methyl-phenyl)ethyl]-7-methoxy-1,2,3,4-tetrahydroisoquinoline], for which it took 5.15 µM to reach half-maximal cytotoxicity (CC50 at 96 h).

`COc1cc(C)c(/C=C/C2c3cc(OC)c(OCc4ccccc4)cc3CCN2C(N)=O)cc1OCc1ccccc1` (stereo not drawn) [Example R, 6-benzyloxy-1-[(E)-2-(5-benzyloxy-4-methoxy-2-methyl-phenyl)vinyl]-7-methoxy-3,4-dihydro-1H-isoquinoline-2-carboxamide]: the CC50 at 96 h under setting [1] was 39.3 µM. Regarding `COc1cc(/C=C/C2NCCc3cc(OC)c(OCc4ccccc4)cc32)ccc1OCc1ccccc1` (stereo not drawn) [Example S, 7-benzyloxy-1-[(E)-2-(4-benzyloxy-3-methoxy-phenyl)vinyl]-6-methoxy-1,2,3,4-tetrahydroisoquinoline], the CC50 at 96 h stood at 8.25 µM. Compound `COc1cc(C)c(/C=C/C2c3cc(OC)c(OCc4ccccc4)cc3CCN2C(=O)c2ccncc2)cc1OCc1ccccc1` (stereo not drawn) [Example U, [6-benzyloxy-1-[(E)-2-(5-benzyloxy-4-methoxy-2-methyl-phenyl)vinyl]-7-methoxy-3,4-dihydro-1H-isoquinolin-2-yl]-(4-pyridyl)methanone] gave a half-maximal cytotoxic concentration (CC50) at 96 h greater than 100 µM.

The record behind these values is patent US9518022B2, “Anti-HIV compounds” (priority 2014, dated 2016).
